Experimental data from ChEMBL document CHEMBL5523709, “Synthesis and Evaluation of diaryl ether modulators of the leukotriene A4 hydrolase aminopeptidase activity” (Eur J Med Chem, 2024).
The source made the active and inactive calls. The rule behind the calls is not given here.

What was measured:
[1] = Metabolic stability in mouse liver microsomes assessed as depletion measured after 30 mins; assay type: ADME, Microsome; details: read-out: Drug degradation
Mus musculus [2] = organism: Mus musculus; experiment: Anti-inflammatory activity against 1000 CFU of Klebsiella pneumonia ATCC 43816 intranasal infected C57BL/6 mouse pneumonia model assessed as mouse survival treated a day after bacterial exposure measured upto 14 days; assay type: functional, organism-based; details: time <= 14.0 day
Mus musculus [3] = organism: Mus musculus; experiment: Reduction in LTB4 level in 1000 CFU of Klebsiella pneumonia ATCC 43816 intranasal infected C57BL/6 mouse pneumonia model assessed as LTB4 level in bronchoalveolar lavage fluid (BALF) ELISA based by Epoxide hydrolase assay; assay type: functional
[4] = target: T1, Leukotriene A-4 hydrolase (Homo sapiens) (UniProt P09960); experiment: Activation of human recombinant LTA4H aminopeptidase activity assessed as alanine-p-nitroanilide (Ala-pNA) hydrolysis at 10 uM measured within 2 mins time window by LCMS analysis
T1 sequence (whole entry): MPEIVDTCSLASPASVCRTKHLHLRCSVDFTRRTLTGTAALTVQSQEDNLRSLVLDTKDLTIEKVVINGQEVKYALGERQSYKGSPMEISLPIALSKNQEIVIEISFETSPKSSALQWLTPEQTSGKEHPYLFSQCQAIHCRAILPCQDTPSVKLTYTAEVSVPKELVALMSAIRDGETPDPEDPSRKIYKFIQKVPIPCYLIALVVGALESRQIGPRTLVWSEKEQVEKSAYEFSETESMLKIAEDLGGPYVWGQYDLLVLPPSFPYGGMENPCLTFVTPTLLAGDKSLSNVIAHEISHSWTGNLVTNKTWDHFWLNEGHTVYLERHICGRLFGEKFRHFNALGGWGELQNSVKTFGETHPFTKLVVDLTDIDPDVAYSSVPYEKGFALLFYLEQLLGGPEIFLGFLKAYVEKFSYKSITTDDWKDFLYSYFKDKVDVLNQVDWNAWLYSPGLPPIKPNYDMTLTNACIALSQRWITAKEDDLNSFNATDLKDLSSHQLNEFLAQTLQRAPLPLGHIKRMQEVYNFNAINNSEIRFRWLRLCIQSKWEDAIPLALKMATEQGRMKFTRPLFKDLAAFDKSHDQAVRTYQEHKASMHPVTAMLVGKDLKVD

[5] = target: T2, Leukotriene A-4 hydrolase (Homo sapiens, UniProt P09960); experiment: Inhibition of human recombinant LTA4H aminopeptidase activity assessed as alanine-p-nitroanilide (Ala-pNA) hydrolysis by LCMS analysis
T2 sequence (P09960 whole entry): T1 sequence (whole entry)

[6] = target: T2, Leukotriene A-4 hydrolase; experiment: Activation of human recombinant LTA4H aminopeptidase activity assessed as alanine-p-nitroanilide (Ala-pNA) hydrolysis by LCMS analysis

SMILES | metabolised at 0.5 h [1] [%] | EC50 [6] [nM] | also measured
Nc1cc[nH]n1 | 18 |  | Activity (Mus musculus [2]): inactive; Activity (Mus musculus [3]): Active; Activity [4]: inactive
Clc1ccc(Oc2ccc(N3CCNCC3)cc2)cc1 |  |  | IC50 [5]: 3330 nM
Nc1nc(-c2ccc(Cc3ccccc3)cc2)cs1 |  | 240 | 
Nc1cc(-c2ccc(Oc3ccc(Cl)cc3)cc2)n[nH]1 |  | 120 | 
C[C@]12CC[C@H]3[C@@H](CCC4=CC(=O)CC[C@@]43C)[C@@H]1CC[C@@H]2O [TESTOSTERONE] | 98 |  | 
